Data as given in patent US12398117B2, “Heteroarylamidopyridinol derivative and pharmaceutical composition comprising same as active ingredient for prevention or treatment of autoimmune disease” (INNOVO THERAPEUTICS INC., priority 2019, dated 2025).

Key:
[1] = system: adhesion of intestinal epithelial cells (HT-29) and monocytic cells (U937) induced by TNF-α; assay: Inhibition of TNF-α-induced adhesion of monocytes and intestinal epithelial cells; assay type: cell-based, human; conditions: Homo sapiens
Method: HT-29 human colon cancer-derived epithelial cells and U937 human-derived monocytes were cultured in RPMI 1640 medium containing 10% FBS and 1% penicillin/streptomycin (PS) in a 37° C., 5% CO2 incubator. When the cells grew more than 80% of the bottom area of the culture flask, they were passaged at a ratio of 1:3 and used in this experiment. HT-29 cells were cultured in a 24-well plate at the density of 2×10^5 cells/cm^2, and the test drug was pretreated in a medium containing 1% FBS and 1% PS for 1 hour. Thereafter, 10 μg/mL of BCECF-AM was treated thereto and reacted at 37° C. for 30 minutes. U937 cells loaded with BCECF and TNF-α (10 ng/mL) were reacted with HT-29 cells previously treated with the test drug at 37° C. for 3 hours. Upon completion of the reaction, the medium was removed, and the culture flask was washed twice with PBS to remove non-adherent U937 cells. In the next step, the cells were lysed by treating with 0.1% Triton X-100 (0.1 M Tris) and reacted at room temperature for 30 minutes. Then, fluorescence was measured and quantified using a fluostar optima microplate reader (BMG Labtechnologies, Germany) (Carvalho et al., 1996; Thapa et al., 2008).

[2] = system: adhesion of intestinal epithelial cells (HT-29) and monocytic cells (U937) induced by IL-6; assay: Inhibition of IL-6-induced adhesion of monocytes and intestinal epithelial cells; assay type: cell-based, human; conditions: Homo sapiens
How it was run: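 HT-29 monolayers pretreated 1 h with test drug in 1% FBS medium, then co-incubated 3 h at 37 °C with BCECF-labeled U937 monocytes plus IL-6 (10 ng/mL). After removal of non-adherent cells, bound monocytes quantified by BCECF fluorescence of Triton X-100 lysates.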

[3] = system: collagen-induced rheumatoid arthritis animal model; assay: Oral efficacy in collagen-induced rheumatoid arthritis (CIA) mouse model; assay type: in vivo, DBA/1J mice
Method: 12-week-old normal male mice and arthritis-induced DBA/1J mice were purchased from Central Lab. Animal Inc [To induce arthritis, DBA/1J mice were sensitized by injecting a mixed solution of Complete Freund's Adjuvant (CFA; DIFCO, Detroit, MI) and Bovine Type II collagen (1:1, v/v) intradermally at the pinna base at 8 weeks of age, and then, secondary sensitization was performed by intradermal injection at the tail head at 11 weeks of age]. The purchased arthritis mice were acclimatized to the laboratory environment for a week, and then oral administration of the drug was started.
Visual observation of arthritic lesions was performed using the following scores based on a reference (Barnett et al., 1998).
Therefore, the highest score for arthritic lesions was 16 per mouse.
The hind paw thickness, which is one of the pathological indices of rheumatoid arthritis, was measured using a caliper.
The right hind leg of each mouse was extracted, and all skin and muscles were removed, leaving only the bones and joints. The hind leg was fixed in 4% paraformaldehyde solution for 2 days, then immersed in 10% formic acid for 5 days to decalcify, and then immersed in 30% sucrose solution. When the tissue subsided, the articular tissue was cut into […] thick using a cryomicrotome (Microm HM 450, Thermo Fisher Scientific, Germany) and stored in a cryopreservation solution. Staining was performed using the stored tissue sections. After attaching the tissue sections to the slide glass, they were hydrated with 100%, 95%, 70%, and 50% ethanol solutions, and some were stained with safranin and others were stained with hematoxylin/eosin. For safranin staining, the tissue sections were first stained with 0.1% fast green solution, washed with 1% acetic acid solution, and then stained with 1% safranin solution. Thereafter, the tissue sections were dehydrated by immersing in ethanol solutions in the reverse order of hydration, and then preserved in xylene solution and mounting solution, and photographed under a microscope. Hematoxylin/eosin staining was performed in the same manner as in the colon tissue staining. The tissue sections were dehydrated, preserved in xylene solution and mounting solution, and observed under a microscope.
The degree of microscopic tissue damage of the stained articular tissue was measured using the following scores.
After the spleen and draining lymph nodes of the mice were extracted, the number of immune cells was counted. To confirm the distribution of Th1 and Th17 cells, the immune cells obtained from each organ were stimulated using PMA/Ionomycin and Golgi stop.
After staining using an anti-IFN-γ antibody that can identify Th1 cells, an anti-IL-17 antibody that can identify Th17 cells, and an anti-CD8 antibody that can identify cytotoxic T cells, the proportion of inflammatory cells among the total immune cells was confirmed using flow cytometry.

Cc1ccc2[nH]c(C(=O)Nc3nc(C)c(O)c(C)c3C)cc2c1 [Compound X-09, N-(5-hydroxy-3,4,6-trimethylpyridin-2-yl)-5-methyl-1H-indole-2-carboxamide]
inhibition at 1 µM ([1]; test drug 1 μM, TNF-α 10 ng/mL, HT-29/U937, read-out: Inhibitory activity (%)): 82.8% | IC50 ([1]; inhibition of adhesion by TNF-α): 300 nM | inhibition at 1 µM ([2]; 3 h, test drug 1 μM, IL-6 10 ng/mL, HT-29/U937, read-out: inhibitory activity (%)): 71.7% | IC50 ([2]; inhibition of adhesion by IL-6): 340 nM | number of inflammatory cells Th1 and Th17 and activated CD8 cells in spleen ([3]; after 35 days of drug administration, FIG. 8B): dose-dependent decrease | number of inflammatory cells Th1 and Th17 and activated CD8 cells in draining lymph node ([3]; after 35 days of drug administration, FIG. 8C): dose-dependent effect | hind paw thickness ([3]; oral 50 mg/kg, 35th day of drug administration): 1.70 mm | arthritis score ([3]; oral 50 mg/kg, 35th day of drug administration, maximum score 16): 7.2 | degree of arthritis (visual observation score) ([3]; oral, up to 35 days, FIG. 5A): significantly improved dose dependently
